{"source": "paper PMC8010149", "about": "“A Therapeutic Strategy to Combat HIV-1 Latently Infected Cells With a Combination of Latency-Reversing Agents Containing DAG-Lactone PKC Activators” (Frontiers in Microbiology, 2021)", "key": {"[1]": {"system": "PBMCs from healthy donors", "experiment": "Acute cytotoxicity in primary cells (fixable viability dye, flow cytometry)", "assay_type": "cell-based", "description": "For T cell activation and exhaustion marker staining, PBMCs from healthy donors separated by the above density gradient centrifugation method were incubated with fixable viability stain Ghost Dye 780 (TONBO Biosciences) for 30 min on ice. […] Next, the cells were analyzed using BD FACSVerse (BD Biosciences). In the analysis, unstained cells were used as a negative control to set the gating for each experiment. The collected data were analyzed using FlowJo software (Tree Star, San Carlos, CA, United States).\nThe ratio of living cells was calculated for fixable viability dye negative cell populations by flow cytometry. Data are shown as means ± SDs of three independent experiments."}, "BALB/c mice": {"system": "BALB/c mice", "experiment": "In vivo acute toxicity (24 h) in BALB/c mice", "details": "intraperitoneal, 100 μg/kg–10 mg/kg", "source_text": "BALB/c mice were purchased from Charles River Laboratories Japan, Inc. (Yokohama, Japan). Female mice at 5 weeks of age were used for the experiments. The mice were housed and monitored in our animal research facility according to the institutional guidelines. All experimental procedures and protocols were approved by the Institutional Animal Care and Use Committee of Kumamoto University."}, "[2]": {"system": "CD8+PD1+CD38+ primary T cells", "experiment": "Immune exhaustion markers, CD8+PD1+CD38+ primary T cells", "assay_type": "cell-based, human", "details": "PBMCs from healthy donors, 24 h", "experimental": "(§1) The amount of intracellular HIV-1 p24 and the active form of caspase-3 were determined by flow cytometry, as previously described ([Matsuda et al., 2015], [2019]). In brief, ACH-2 and U1 cells (2.5 × 10^5 cells/ml) were fixed with 1% paraformaldehyde/PBS for 20 min and permeabilized with Flow Cytometry Perm Buffer (TONBO Biosciences, San Diego, CA, United States). After 5 min of incubation at room temperature, the cells were stained with FITC anti-HIV-1 p24 (24-4) monoclonal antibody (mAb; Santa Cruz Biotechnology, Dallas, TX, United States) or Alexa Fluor 647-conjugated anti-active caspase-3 (C92-605) mAb (BD Pharmingen, San Diego, CA, United States) for 30 min on ice. For T cell activation and exhaustion marker staining, PBMCs from healthy donors separated by the above density gradient centrifugation method were incubated with fixable viability stain Ghost Dye 780 (TONBO Biosciences) for 30 min on ice. The cells were then stained with Brilliant Violet 510 anti-human CD3 (UCHT1) mAb (BioLegend), FITC anti-human CD4 (RPA-T4) mAb (TONBO Biosciences), PE-Cy7 anti-human CD8a (RPA-T8) mAb (TONBO Biosciences), PerCP-Cy5.5 anti-human CD38 (HB-7) mAb (BioLegend), PE anti-human CD69 (FN50) mAb (BioLegend), or Alexa Fluor 647 anti-human CD279/PD-1 (EH12.1) mAb (BD Biosciences, San Jose, CA, United States) for 30 min on ice. Next, the cells were analyzed using BD FACSVerse (BD Biosciences). In the analysis, unstained cells were used as a negative control to set the gating for each experiment. The collected data were analyzed using FlowJo software (Tree Star, San Carlos, CA, United States)."}, "[3]": {"system": "HIV-1 latently infected ACH-2 cells", "experiment": "Intracellular HIV-1 p24 by flow cytometry in ACH-2 cells", "assay_type": "cell-based", "details": "24 h", "experimental": "(§2) The reactivation of HIV-1 from latently infected cells was determined by intracellular p24 protein expression and quantification of p24 antigen in the supernatant (ACH-2 and U1 cells), or by changes in intracellular green fluorescent protein (GFP) expression (J-Lat 10.6 cells). J-Lat ([Jordan et al., 2003]), ACH-2, or U1 cells (5 × 10^5 cells/ml) were seeded in 96-well plates and incubated with different drug concentrations for 24 h to collect the cells. The supernatant was collected after 48 h. The increase in supernatant p24 antigen levels was measured using a Lumipulse G1200 (FUJIREBIO, Tokyo, Japan). J-Lat cells (5 × 10^5 cells/ml) were placed in 48-well plates and incubated with different drug concentrations for 24 h. Intracellular p24 protein expression and GFP-positive cells were analyzed by flow cytometry.\nas §1"}, "[4]": {"system": "HIV-1 latently infected U1 cells", "experiment": "HIV-1 latency reversal, p24 antigen in supernatant, U1 cells", "assay_type": "cell-based", "details": "Human immunodeficiency virus 1, 48 h", "experimental": "as §2"}, "U1 cells": {"system": "U1 cells", "experiment": "Active caspase-3 by flow cytometry in U1 cells", "assay_type": "cell-based", "details": "10 µM, 24 h", "experimental": "as §1, with “The cells were then stained with Brilliant Violet 510 anti-human CD3 (UCHT1) mAb (BioLegend), FITC anti-human CD4 (RPA-T4) mAb (TONBO Biosciences), PE-Cy7 anti-human CD8a (RPA-T8) mAb (TONBO Biosciences), PerCP-Cy5.5 anti-human CD38 (HB-7) mAb (BioLegend), PE anti-human CD69 (FN50) mAb (BioLegend), or Alexa Fluor 647 anti-human CD279/PD-1 (EH12.1) mAb (BD Biosciences, San Jose, CA, United States) for 30 min on ice.” left out, “In the analysis, unstained cells were used as a negative control to set the gating for each experiment.” left out"}, "U937 cells": {"system": "U937 cells", "experiment": "Active caspase-3 by flow cytometry in U937 cells", "assay_type": "cell-based", "details": "10 μM, 24 h"}, "J-Lat 10.6 cells": {"system": "J-Lat 10.6 cells", "assay_type": "cell-based, HIV-1", "experimental": "The reactivation of HIV-1 from latently infected cells was determined by intracellular p24 protein expression and quantification of p24 antigen in the supernatant (ACH-2 and U1 cells), or by changes in intracellular green fluorescent protein (GFP) expression (J-Lat 10.6 cells). […] The supernatant was collected after 48 h. The increase in supernatant p24 antigen levels was measured using a Lumipulse G1200 (FUJIREBIO, Tokyo, Japan). […] Intracellular p24 protein expression and GFP-positive cells were analyzed by flow cytometry.\nDifferences between groups were analyzed for statistical significance using unpaired t-tests. Statistical significance was set at p < 0.05. Statistical analyses were performed using GraphPad Prism version 8 (GraphPad Software, La Jolla, CA, United States). CompuSyn software, based on the quantitative analysis of dose-effect relationships between multiple drugs by Chou and Talalay, was utilized to determine the synergism or antagonism of drug combinations ([Chou and Talalay, 1984]). To confirm synergy, this software calculates combination index (CI) values, which further assist in determining the nature of the combination compared to single drug effects. A CI value <1 indicates synergistic effects."}}, "data": [{"smiles": "CCCC(CCC)C(=O)OCC1(CO)CC(=C(C)C)C(=O)O1", "note": "(stereo not shown) [YSE028]", "values": [{"measurement": "toxicity of LRAs in combination in primary cells", "setting": "[1]; YSE028 10 μM with JQ1 1 μM, Supplementary Figure S3A", "result": "did not cause increased toxicity in combination"}, {"measurement": "acute toxicity in primary cells", "setting": "[1]; up to 100 μM, 24 h", "result": "did not show acute toxicity"}, {"measurement": "survival", "setting": "BALB/c mice", "result": "all of them survived"}, {"measurement": "increase in CD8+ PD1+ CD38+ T cells", "setting": "[2]", "result": "only moderate"}, {"measurement": "intracellular p24-positive live cells (flow cytometry quadrant)", "setting": "[3]; 0.1 µM", "result": 0.889}, {"measurement": "intracellular p24-positive live cells (flow cytometry quadrant)", "setting": "[3]; 1 µM", "result": 62}, {"measurement": "intracellular p24-positive live cells (flow cytometry quadrant)", "setting": "[3]; 10 µM", "result": 79.1}, {"measurement": "EC50", "setting": "[4]", "result": 1810, "unit": "nM"}, {"measurement": "caspase-3 activation", "setting": "U1 cells", "result": 22.7, "unit": "%"}, {"measurement": "caspase-3 activation", "setting": "U937 cells", "result": 6.35, "unit": "%"}, {"measurement": "number of GFP+ cells", "setting": "J-Lat 10.6 cells; J-Lat 10.6 cells, 100–400 nM, 24 h", "result": 5.8, "unit": "%"}, {"measurement": "LRA activity in the presence of 10% mouse serum versus 10% FBS", "setting": "J-Lat 10.6 cells; J-Lat 10.6 cells, 24 h, GFP-positive cells", "result": "drastically decreased"}, {"measurement": "reactivation after short-term exposure", "setting": "J-Lat 10.6 cells; J-Lat cells, exposure 1 h, wash-out, analysed after 24 h", "result": "successfully reactivated"}]}]}
